“Also recorded” adds a separate entry of the source.
Key:
[1] = test system: Hh pathway activation (Ptch1, Gli1, HIP); assay: Limb culture of E14.5 limbs with qRT-PCR for markers of Hh pathway activation; type: cell-based; conditions: Prx1-cre+; Gαs^flox/− mouse limbs isolated at E14.5, cultured in vitro 4 days, 5 μM ATO vs vehicle
Procedure: FIG. 8: ATO inhibits elevated Hh signaling in Prx1-cre+; Gαs^flox/− mouse limbs. Control and Prx1-cre+; Gαs^flox/− mouse limbs were isolated at E14.5 and cultured in vitro for 4 days in the BGJB media containing vehicle or 5 μM ATO. Limbs were then collected, RNA isolated and qRT-PCR was performed for markers of Hh pathway activation (Ptch1, Gli1, HIP). In the absence of ATO, expression of these markers was elevated relative to control (6-fold, 5-fold and 17-fold, respectively).
The formation of HO indicated inappropriate upregulation of a pro-osteogenic pathway (e.g. BMP, Wnt, and/or hedgehog) outside the skeleton. As Gαs is a physiologically important activator of protein kinase A (PKA) and PKA is a potent inhibitor of Hedghehog (Hh) signaling (Jiang, et al., 1995, Cell 80, 563-572), loss of Gαs is likely associated with an upregulation of Hh that was driving HO formation. Accordingly, Hh signaling would be elevated prior to HO formation and overlap in its tissue expression. Quantitative reverse transcriptase polymerase chain reaction (qRT-PCR) was performed on RNA isolated from control and Prx1-cre+; Gαs^flox/− mutant limb tissue at E14.5, prior to HO formation. The following primers were used for qRT-PCR: […]
Relative expression was quantified using the […] method (Livak, et al., 2001, Methods 25, 402-08). […]

[2] = test system: Prx1-cre+; Gαs^flox/− mice; assay: HO formation in vivo in Prx1-cre+; Gαs^flox/− pups from treated pregnant females (Alizarin Red-Alcian Blue staining); parameters: species or system mouse
Procedure: FIG. 12: ATO inhibits HO formation in Prx1-cre+; Gαs^flox/− mice. Pregnant females were injected with either […] ATO or vehicle at E13.5, E15.5 and E17.5 and embryos were collected at E18.5. An Alizarin Red-Alcian Blue skeletal prep was performed to assay for the presence of HO between the digits.
Embryos were skinned and placed in 100% EtOH overnight to fix. Embryos were then placed in staining solution for 2 days (50 mL staining solution=2.5 mL 0.3% Alcian Blue, 2.5 mL 0.1% Alizarin Red, 2.5 mL 100% glacial acetic acid, 42.5 mL 70% EtOH). Embryos were rinsed with water, then placed in 1% KOH until destained, and finally in 80% glycerol for storage.
Inhibitors of Hh signaling were tested for an ability to inhibit the formation of HO in vivo. Matings were established between Prx1-cre+; Gαs^flox/− male and Gαs^flox/flox female mice. Pregnant females at gestational days E13.5, E15.5 and E17.5 were injected intraperitoneally with 5 mg/kg ATO. Pregnant mice are first weighed and then injected with care so as to avoid injection into uteri. Mice were sacrificed at E18.5, pups were collected, and stained for bone formation by Alizarin Red-Alcian Blue staining. Prx1-cre+; Gαs^flox/− pups from mice injected with vehicle control produced HO as evidenced by enhanced red staining in soft tissues. […]

[3] = test system: bone marrow mesenchymal cells (BMMC); assay: Osteoblastic differentiation of BMMC after removal of Gαs (Von Kossa, Alizarin red staining); type: cell-based, mouse; conditions: osteogenic media 7 days
Procedure: FIG. 13: Removal of Gαs from bone marrow mesenchymal cells (BMMC) promotes osteoblastic differentiation, which is inhibited by Hh antagonist, GANT-58 treatment in a dose-dependent manner. BMMCs were isolated from Gαsflox/flox mice and infected with a Cre-containing adenovirus (ad-Cre) to remove Gαs or GFP-containing adenovirus (Ad-GFP) control. Cells were grown to confluence and placed in osteogenic media for 7 days. […] No effect of GANT-58 observed in Ad-GFP treated cells (panels c and e compared to a).
HO requires an inappropriate increase in bone forming cells (osteoblasts) The role of Gαs in promoting osteoblastic differentiation was tested. Bone marrow mesenchymal cells (BMMC) (also called mesenchymal stem cells) were isolated from Gαs^flox/flox mice. BMMC were isolated by flushing the bone marrow cavity of 6 week old mice and plating cells in Alpha-MEM, 20% FBS, 100 U/mL penicillin, 100 μg/mL streptomycin, 2 mM glutamine. Prior to reaching confluence cells were treated with a Cre- or GFP-containing adenovirus. Upon reaching confluence cells were switched to osteogenic media (DMEM, 10% lot-selected FBS, 100 U/mL penicillin, […] streptomycin, 2 mM glutamine, 10^-4M L-ascorbic acid 2-phosphate and 10 mM α-glycerol phosphate). These cells were infected with a Cre-containing adenovirus to remove Gαs and cultured under conditions that favor osteogenic differentiation. […]

| Compound | expression of markers of Hh pathway activation (Ptch1, Gli1, HIP) by qRT-PCR [1] | HO in forelimb and hind limb, Alizarin Red-Alcian Blue staining ([2]; pregnant females injected intraperitoneally with 5 mg/kg ATO at E13.5, E15.5 and E17.5, pups collected at E18.5, vs vehicle control) | levels of HO in forelimbs and hind limbs, Alizarin Red-Alcian Blue skeletal prep ([2]; pregnant females injected with 5 μg/kg ATO at E13.5, E15.5 and E17.5, embryos collected at E18.5, relative to vehicle) | tissue mineralization, Von Kossa staining ([3]; Ad-Cre infected BMMC (Gαs removed)) | effect on mineralization in control cells, Von Kossa staining ([3]; Ad-GFP treated BMMC (control)) |
| --- | --- | --- | --- | --- | --- |
| arsenic trioxide [ATO] | dramatic reduction in the Hh pathway activation; also recorded: significantly reduced | significant reduction in HO | reduced levels of HO |  |  |
| c1cc(-c2sc(-c3ccncc3)c(-c3ccncc3)c2-c2ccncc2)ccn1 [GANT-58] |  |  |  | inhibited by GANT-58 in a dose-dependent manner | No effect |

Reference: patent US20140220154A1, “METHOD OF TREATING PATHOLOGIC HETEROTOPIC OSSIFICATION” (The United States of America, as represented by the …, priority 2011, published 2014)
